Experimental findings from patent US20240360082A1, “SUBSTITUTED PYRIDONE COMPOUNDS USEFUL TO TREAT ORTH[…]” (priority 2021, published 2024) are described below.

pIC50: −log10 of the molar value.

For one experiment, the target named is influenza A virus minigenome (PB2, PB1, PA, NP proteins) (UniProt P04665). The class given is cell-based. To be noted: read-out: RNP_ Hubei B IC50.
Chain of influenza A virus minigenome (PB2, PB1, PA, NP proteins) (P04665 whole entry): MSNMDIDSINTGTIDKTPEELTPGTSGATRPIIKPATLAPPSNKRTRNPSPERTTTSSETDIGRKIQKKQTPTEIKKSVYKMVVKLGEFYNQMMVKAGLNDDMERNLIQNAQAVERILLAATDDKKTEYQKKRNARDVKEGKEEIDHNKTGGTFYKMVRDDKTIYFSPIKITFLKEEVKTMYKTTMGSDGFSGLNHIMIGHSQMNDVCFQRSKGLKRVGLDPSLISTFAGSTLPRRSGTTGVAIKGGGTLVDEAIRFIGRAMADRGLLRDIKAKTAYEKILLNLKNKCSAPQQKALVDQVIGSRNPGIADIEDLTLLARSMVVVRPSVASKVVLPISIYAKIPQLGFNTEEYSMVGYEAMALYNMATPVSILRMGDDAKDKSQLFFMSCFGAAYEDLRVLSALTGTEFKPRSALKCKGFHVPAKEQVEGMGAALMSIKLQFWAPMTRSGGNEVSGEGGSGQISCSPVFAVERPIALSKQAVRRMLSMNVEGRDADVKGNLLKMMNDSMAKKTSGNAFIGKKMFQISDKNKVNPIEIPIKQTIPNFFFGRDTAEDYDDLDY
Turning to `C[C@@]12O[C@@H](COc3ccc(-c4cc(C(N)=O)c(=O)[nH]c4C(F)(F)F)cc3)CO[C@@H]1C2(F)F` [Example 396, 5-(4-(((1R,3R,6S)-7,7-difluoro-1-methyl-2,5-dioxabicyclo[4.1.0]heptan-3-yl)methoxy)phenyl)-2-oxo-6-(trifluoromethyl)-1,2-dihydropyridine-3-carboxamide], the pIC50 is 5.00 to 5.30. In the case of `CN1C(=O)OCC1COc1ccc(-c2cc(C(N)=O)c(=O)[nH]c2C(F)(F)F)cc1` (stereo not shown) [Example 235, 5-(4-((3-methyl-2-oxooxazolidin-4-yl)methoxy)phenyl)-2-oxo-6-(trifluoromethyl)-1,2-dihydropyridine-3-carboxamide], the pIC50 is 4.30 to 4.60.

For the compound `NC(=O)c1cc(-c2ccc(OCC3COC(C(F)F)CO3)cc2)c(C(F)(F)F)[nH]c1=O` (single isomer, unassigned) [Example 347, 5-(4-((5-(difluoromethyl)-1,4-dioxan-2-yl)methoxy)phenyl)-2-oxo-6-(trifluoromethyl)-1,2-dihydropyridine-3-carboxamide], the pIC50 was 5.00 to 5.30.

Consider `C[C@]1(CC(F)F)COC[C@@H](COc2ccc(-c3cc(C(N)=O)c(=O)[nH]c3C(F)(F)F)cc2)O1` [Example 434, 5-(4-(((2S,6S)-6-(2,2-difluoroethyl)-6-methyl-1,4-dioxan-2-yl)methoxy)phenyl)-2-oxo-6-(trifluoromethyl)-1,2-dihydropyridine-3-carboxamide], for which the pIC50 was 5.00 to 5.30. With `CC1(OCC2COCC(COc3ccc(-c4cc(C(N)=O)c(=O)[nH]c4C(F)(F)F)cc3)O2)COC1` (single isomer, unassigned) [Example 378], the pIC50 is 5.00 to 5.30. As for `NC(=O)c1cc(-c2ccc(OCC3CO[C@@H]4[C@H](O3)C4(F)F)cc2)c(C(F)(F)F)[nH]c1=O` (stereo partly drawn) [Example 390, 5-(4-((cis-7,7-difluoro-2,5-dioxabicyclo[4.1.0]heptan-3-yl)methoxy)phenyl)-2-oxo-6-(trifluoromethyl)-1,2-dihydropyridine-3-carboxamide], the pIC50 is 5.30 to 6.00.

As for `NC(=O)c1cc(-c2ccc(OCC3COCC(Cn4cccc4)O3)cc2)c(C(F)(F)F)[nH]c1=O` (single isomer, unassigned) [Example 375, 5-(4-((6-((1H-pyrrol-1-yl)methyl)-1,4-dioxan-2-yl)methoxy)phenyl)-2-oxo-6-(trifluoromethyl)-1,2-dihydropyridine-3-carboxamide], the pIC50 was 5.00 to 5.30. As to `CC1(COc2ccc(-c3cc(C(N)=O)c(=O)[nH]c3C(F)(F)F)cc2)COC1` [Example 227], the pIC50 is 4.30 to 4.60. For the compound `CCC1(COc2ccc(-c3cc(C(N)=O)c(=O)[nH]c3C(F)(F)F)cc2)COC1` [Example 228], the pIC50 was 4.60 to 5.00. For the compound `NC(=O)c1cc(-c2ccc(OCC3COCC(COCC(F)F)O3)cc2)c(C(F)(F)F)[nH]c1=O` (single isomer, unassigned) [Example 369, 5-(4-((6-((2,2-difluoroethoxy)methyl)-1,4-dioxan-2-yl)methoxy)phenyl)-2-oxo-6-(trifluoromethyl)-1,2-dihydropyridine-3-carboxamide], the pIC50 is 5.00 to 5.30. `CCOCC1COCC(COc2ccc(-c3cc(C(N)=O)c(=O)[nH]c3C(F)(F)F)cc2)O1` (single isomer, unassigned) [Example 361, 5-(4-((6-(ethoxymethyl)-1,4-dioxan-2-yl)methoxy)phenyl)-2-oxo-6-(trifluoromethyl)-1,2-dihydropyridine-3-carboxamide]: the pIC50 is 5.00 to 5.30. `COC(C)(C)COCC1COCC(COc2ccc(-c3cc(C(N)=O)c(=O)[nH]c3C(F)(F)F)cc2)O1` (single isomer, unassigned) [Example 371, 5-(4-((6-((2-methoxy-2-methylpropoxy)methyl)-1,4-dioxan-2-yl)methoxy)phenyl)-2-oxo-6-(trifluoromethyl)-1,2-dihydropyridine-3-carboxamide]: the pIC50 is 5.00 to 5.30. For the compound `NC(=O)c1cc(-c2ccc(OCC3COC(C(F)F)CO3)cc2)c(C(F)(F)F)[nH]c1=O` (single isomer, unassigned) [Example 344, 5-(4-((5-(difluoromethyl)-1,4-dioxan-2-yl)methoxy)phenyl)-2-oxo-6-(trifluoromethyl)-1,2-dihydropyridine-3-carboxamide], the pIC50 is 5.00 to 5.30.

For the compound `CC1(COc2ccc(-c3cc(C(N)=O)c(=O)[nH]c3C(F)(F)F)cc2)COCCOC1` [Example 321, 5-(4-((6-methyl-1,4-dioxepan-6-yl)methoxy)phenyl)-2-oxo-6-(trifluoromethyl)-1,2-dihydropyridine-3-carboxamide], the pIC50 was 5.00 to 5.30. `NC(=O)c1cc(-c2ccc(OCc3cnco3)cc2)c(C(F)(F)F)[nH]c1=O` [Example 267, 5-(4-(oxazol-5-ylmethoxy)phenyl)-2-oxo-6-(trifluoromethyl)-1,2-dihydropyridine-3-carboxamide]: the pIC50 was 4.30 to 4.60.

Consider `NC(=O)c1cc(-c2ccc(OC[C@@H]3COCC4(COCCOC4)O3)cc2)c(C(F)(F)F)[nH]c1=O` [Example 416, (S)-5-(4-((1,4,8,11-tetraoxaspiro[5.6]dodecan-2-yl)methoxy)phenyl)-2-oxo-6-(trifluoromethyl)-1,2-dihydropyridine-3-carboxamide], for which the pIC50 is 5.00 to 5.30. Consider `COC1(C2COCC(COc3ccc(-c4cc(C(N)=O)c(=O)[nH]c4C(F)(F)F)cc3)O2)CC1` (single isomer, unassigned) [Example 353, 5-(4-((6-(1-methoxycyclopropyl)-1,4-dioxan-2-yl)methoxy)phenyl)-2-oxo-6-(trifluoromethyl)-1,2-dihydropyridine-3-carboxamide], for which the pIC50 is 5.00 to 5.30. Regarding `COC[C@@]1(C)COC[C@@H](COc2ccc(-c3cc(C(N)=O)c(=O)[nH]c3C(F)(F)F)cc2)O1` [Example 405, 5-(4-(((2S,6S)-6-(methoxymethyl)-6-methyl-1,4-dioxan-2-yl)methoxy)phenyl)-2-oxo-6-(trifluoromethyl)-1,2-dihydropyridine-3-carboxamide], the pIC50 was 5.00 to 5.30.

For the compound `NC(=O)c1cc(-c2ccc(OCC3COCC(C(F)F)O3)cc2)c(C(F)(F)F)[nH]c1=O` (single isomer, unassigned) [Example 349, 5-(4-((6-(difluoromethyl)-1,4-dioxan-2-yl)methoxy)phenyl)-2-oxo-6-(trifluoromethyl)-1,2-dihydropyridine-3-carboxamide], the pIC50 is 5.00 to 5.30. On the same count and under the same terms, the figure for `NC(=O)c1cc(-c2ccc(OCC3COC4(CC4)CO3)cc2)c(C(F)(F)F)[nH]c1=O` (racemic) [Example 338, 5-(4-((4,7-dioxaspiro[2.5]octan-6-yl)methoxy)phenyl)-2-oxo-6-(trifluoromethyl)-1,2-dihydropyridine-3-carboxamide] is 4.60 to 5.00; for `CC(C)OC[C@H]1COC[C@@H](COc2ccc(-c3cc(C(N)=O)c(=O)[nH]c3C(F)(F)F)cc2)O1` [Example 402, 5-(4-(((2S,6R)-6-(isopropoxymethyl)-1,4-dioxan-2-yl)methoxy)phenyl)-2-oxo-6-(trifluoromethyl)-1,2-dihydropyridine-3-carboxamide] it is 5.00 to 5.30. The same measure, in the same setting: the figure for `COC[C@@H]1COC[C@H](COc2ccc(-c3cc(C(N)=O)c(=O)[nH]c3C(F)(F)F)cc2)O1` (single isomer, unassigned) [Example 400] is 5.00 to 5.30; for `C[C@]1(COCC(F)(F)F)COC[C@@H](COc2ccc(-c3cc(C(N)=O)c(=O)[nH]c3C(F)(F)F)cc2)O1` [Example 432, 5-(4-(((2S,6R)-6-methyl-6-((2,2,2-trifluoroethoxy)methyl)-1,4-dioxan-2-yl)methoxy)phenyl)-2-oxo-6-(trifluoromethyl)-1,2-dihydropyridine-3-carboxamide] it is 5.00 to 5.30; for `C[C@]1(COC2COC2)COC[C@@H](COc2ccc(-c3cc(C(N)=O)c(=O)[nH]c3C(F)(F)F)cc2)O1` [Example 427, 5-(4-(((2S,6R)-6-methyl-6-((oxetan-3-yloxy)methyl)-1,4-dioxan-2-yl)methoxy)phenyl)-2-oxo-6-(trifluoromethyl)-1,2-dihydropyridine-3-carboxamide] it is 5.00 to 5.30.

The same experiment, now with this note: read-out: RNP_Hubei B.
With `NC(=O)c1cc(-c2ccc(OCc3ccc4cn[nH]c4c3)cc2)c(C(F)(F)F)[nH]c1=O` [Example 85, 5-(4-((1H-indazol-6-yl)methoxy)phenyl)-2-oxo-6-(trifluoromethyl)-1,2-dihydropyridine-3-carboxamide], the pIC50 was 4.30 to 4.60. As for `C[C@H]1COCC(COc2ccc(-c3cc(C(N)=O)c(=O)[nH]c3C(F)(F)F)cc2)N1C` (stereo partly drawn) [Example 208, 5-(4-(((5S)-4,5-dimethylmorpholin-3-yl)methoxy)phenyl)-2-oxo-6-(trifluoromethyl)-1,2-dihydropyridine-3-carboxamide], the pIC50 was 5.00 to 5.30. For the compound `COC1CCOC(COc2ccc(-c3cc(C(N)=O)c(=O)[nH]c3C(F)(F)F)cc2)C1` (single isomer, unassigned) [Example 203, 5-(4-((4-methoxytetrahydro-2H-pyran-2-yl)methoxy)phenyl)-2-oxo-6-(trifluoromethyl)-1,2-dihydropyridine-3-carboxamide], the pIC50 was 4.30 to 4.60. Turning to `NC(=O)c1cc(-c2ccc(OCc3ccc4nonc4c3)cc2)c(C(F)(F)F)[nH]c1=O` [Example 71, 5-(4-(benzo[c][1,2,5]oxadiazol-5-ylmethoxy)phenyl)-2-oxo-6-(trifluoromethyl)-1,2-dihydropyridine-3-carboxamide], the pIC50 is 4.30 to 4.60. Consider `NC(=O)c1cc(-c2ccc(CN3CCOCC3=O)cc2)c(C(F)(F)F)[nH]c1=O` [Example 46, 2-oxo-5-(4-((3-oxomorpholino)methyl)phenyl)-6-(trifluoromethyl)-1,2-dihydropyridine-3-carboxamide], for which the pIC50 is 4.30 to 4.60. For the compound `NC(=O)c1cc(-c2ccc(CN3CCSCC3)cc2)c(C(F)(F)F)[nH]c1=O` [Example 28, 2-oxo-5-(4-(thiomorpholinomethyl)phenyl)-6-(trifluoromethyl)-1,2-dihydropyridine-3-carboxamide], the pIC50 was 5.30 to 6.00. As for `NC(=O)c1cc(-c2ccc(Oc3ccccc3)cc2)c(C(F)(F)F)[nH]c1=O` [Example 6, 2-oxo-5-(4-phenoxyphenyl)-6-(trifluoromethyl)-1,2-dihydropyridine-3-carboxamide], the pIC50 is 5.30 to 6.00.
